Measured values taken from PMC8952293, “A Histone Deacetylase (HDAC) Inhibitor with Pleiotropic In Vitro Anti-Toxoplasma and Anti-Plasmodium Activities Controls Acute and Chronic Toxoplasma Infection in Mice” (International Journal of Molecular Sciences, 2022).

What was measured:
[1] = Stability of the radiolabeled compound in the medium; format: physicochemical; settings: corn oil with 5% DMSO
Protocol: (§1) An isotopic exchange was performed to obtain the radiolabeled iodinated JF363. Briefly, 2 mg of the iodinated molecule was incubated in acetone with 3 mg of cold Na127I and 55.5 MBq of radioactive Na125I (PerkinElmer) for 1 h at 95 °C in a heat block. After evaporation of acetone, the radiotracer was solubilized in corn oil; 5% DMSO was also added to mimic the previous conditions. Quality controls were performed by TLC.

[2] = SPECT/CT imaging of the iodine-125 radiotracer in infected mice; format: in vivo, mouse
Protocol: as §1
Three female CD1 mice (31.7 ± 1.3 g; Janvier Labs, Le Genest-Saint-Isle, France) and two female mice infected with T. gondii obtained as previously described (19.5 ± 2.1 g) were studied. The previous study gave the radiotracer by oral gavage (administered dose: 0.73 ± 0.25 MBq/g). Before imaging, mice were anesthetized using isoflurane (2% in a mixture of air: O2) and positioned in a thermostatic bed. Whole-body single-photon emission computerized tomography/computed tomography (SPECT/CT) acquisitions were performed 0.5, 3.5, and 24 h after injection using a dedicated system (nanoSPECT-CT; Mediso, Budapest, Hungary). First, CT and SPECT acquisitions were reconstructed and fused using Nucline software (Mediso, Budapest, Hungary). This fusion allowed drawing a volume of interest (VOI in cm^3) on selected/visible organs, and SPECT quantification based on CT was then performed using VivoQuant (InviCRO, Boston, MA, USA). Results were expressed in %ID/cm^3 or %ID/g (percentage of injected dose per cubic centimeter or gram of tissue).

Toxoplasma = test system: Toxoplasma; design: method as in PMID 22712598; settings: primary drug used to treat toxoplasmosis; cited from earlier work
Toxoplasma gondii = test system: Toxoplasma gondii; design: method as in PMID 20713670; settings: cited from earlier work

Compound: COc1cc(CC(=O)Nc2ccc(C(=O)NO)cc2)ccc1I [iodo-JF363]
- stability in the medium [1]: good up to 72 h
- SPECT quantification ([2]; Bladder, infected mouse #2, 0.5 h pi): 5.5 %DI/cm^3
- SPECT quantification ([2]; Bladder, infected mouse #2, 3.5 h pi): 19.1 %DI/cm^3
- SPECT quantification ([2]; Bladder, infected mouse #2, 24 h pi): 0.6 %DI/cm^3
- SPECT quantification ([2]; Bladder, infected mouse #3, 0.5 h pi): 6.4 %DI/cm^3
- SPECT quantification ([2]; Bladder, infected mouse #3, 3.5 h pi): 8.2 %DI/cm^3
- SPECT quantification ([2]; Bladder, infected mouse #3, 24 h pi): 3.9 %DI/cm^3
- SPECT quantification ([2]; Heart, infected mouse #2, 0.5 h pi): 3.1 %DI/cm^3
- SPECT quantification ([2]; Heart, infected mouse #2, 3.5 h pi): 2.1 %DI/cm^3
- SPECT quantification ([2]; Heart, infected mouse #2, 24 h pi): 0.2 %DI/cm^3
- SPECT quantification ([2]; Heart, infected mouse #3, 0.5 h pi): 1.0 %DI/cm^3
- SPECT quantification ([2]; Heart, infected mouse #3, 3.5 h pi): 1.0 %DI/cm^3
- SPECT quantification ([2]; Heart, infected mouse #3, 24 h pi): 0.2 %DI/cm^3
- SPECT quantification ([2]; Intestine, infected mouse #2, 0.5 h pi): 16.7 %DI/cm^3
- SPECT quantification ([2]; Intestine, infected mouse #2, 3.5 h pi): 13.8 %DI/cm^3
- SPECT quantification ([2]; Intestine, infected mouse #2, 24 h pi): 0.5 %DI/cm^3
- SPECT quantification ([2]; Intestine, infected mouse #3, 0.5 h pi): 3.8 %DI/cm^3
- SPECT quantification ([2]; Intestine, infected mouse #3, 3.5 h pi): 4.9 %DI/cm^3
- SPECT quantification ([2]; Intestine, infected mouse #3, 24 h pi): 1.5 %DI/cm^3
- SPECT quantification ([2]; Lungs, infected mouse #2, 0.5 h pi): 1.8 %DI/cm^3
- SPECT quantification ([2]; Lungs, infected mouse #2, 3.5 h pi): 1.5 %DI/cm^3
- SPECT quantification ([2]; Lungs, infected mouse #2, 24 h pi): 0.1 %DI/cm^3
- SPECT quantification ([2]; Lungs, infected mouse #3, 0.5 h pi): 0.6 %DI/cm^3
- SPECT quantification ([2]; Lungs, infected mouse #3, 3.5 h pi): 0.5 %DI/cm^3
- SPECT quantification ([2]; Lungs, infected mouse #3, 24 h pi): 0.2 %DI/cm^3
- SPECT quantification ([2]; Mouth, infected mouse #2, 0.5 h pi): 10.0 %DI/cm^3
- SPECT quantification ([2]; Mouth, infected mouse #2, 3.5 h pi): 8.4 %DI/cm^3
- SPECT quantification ([2]; Mouth, infected mouse #2, 24 h pi): 4.7 %DI/cm^3
- SPECT quantification ([2]; Mouth, infected mouse #3, 0.5 h pi): 10.5 %DI/cm^3
- SPECT quantification ([2]; Mouth, infected mouse #3, 3.5 h pi): 6.8 %DI/cm^3
- SPECT quantification ([2]; Mouth, infected mouse #3, 24 h pi): 3.4 %DI/cm^3
- SPECT quantification ([2]; Neck ganglia, infected mouse #2, 0.5 h pi): 8.5 %DI/cm^3
- SPECT quantification ([2]; Neck ganglia, infected mouse #2, 3.5 h pi): 9.5 %DI/cm^3
- SPECT quantification ([2]; Neck ganglia, infected mouse #2, 24 h pi): 1.3 %DI/cm^3
- SPECT quantification ([2]; Neck ganglia, infected mouse #3, 0.5 h pi): 4.0 %DI/cm^3
- SPECT quantification ([2]; Neck ganglia, infected mouse #3, 3.5 h pi): 5.0 %DI/cm^3
- SPECT quantification ([2]; Neck ganglia, infected mouse #3, 24 h pi): 1.1 %DI/cm^3
- SPECT quantification ([2]; Salivary glands, infected mouse #2, 0.5 h pi): 16.7 %DI/cm^3
- SPECT quantification ([2]; Salivary glands, infected mouse #2, 3.5 h pi): 37.6 %DI/cm^3
- SPECT quantification ([2]; Salivary glands, infected mouse #2, 24 h pi): 3.0 %DI/cm^3
- SPECT quantification ([2]; Salivary glands, infected mouse #3, 0.5 h pi): 8.1 %DI/cm^3
- SPECT quantification ([2]; Salivary glands, infected mouse #3, 3.5 h pi): 20.3 %DI/cm^3
- SPECT quantification ([2]; Salivary glands, infected mouse #3, 24 h pi): 3.3 %DI/cm^3
- SPECT quantification ([2]; Stomach, infected mouse #2, 0.5 h pi): 12.1 %DI/cm^3
- SPECT quantification ([2]; Stomach, infected mouse #2, 3.5 h pi): 17.1 %DI/cm^3
- SPECT quantification ([2]; Stomach, infected mouse #2, 24 h pi): 4.2 %DI/cm^3
- SPECT quantification ([2]; Stomach, infected mouse #3, 0.5 h pi): 45.0 %DI/cm^3
- SPECT quantification ([2]; Stomach, infected mouse #3, 3.5 h pi): 42.7 %DI/cm^3
- SPECT quantification ([2]; Stomach, infected mouse #3, 24 h pi): 8.9 %DI/cm^3
- SPECT quantification ([2]; Thyroid, infected mouse #2, 0.5 h pi): 28.9 %DI/cm^3
- SPECT quantification ([2]; Thyroid, infected mouse #2, 3.5 h pi): 18.8 %DI/cm^3
- SPECT quantification ([2]; Thyroid, infected mouse #2, 24 h pi): 26.6 %DI/cm^3
- SPECT quantification ([2]; Thyroid, infected mouse #3, 0.5 h pi): 4.1 %DI/cm^3
- SPECT quantification ([2]; Thyroid, infected mouse #3, 3.5 h pi): 9.9 %DI/cm^3
- SPECT quantification ([2]; Thyroid, infected mouse #3, 24 h pi): 29.5 %DI/cm^3
- SPECT activity in neck ganglia ([2]; both infected mice, 24 h pi): ~ 1%
- SPECT activity in neck ganglia ([2]; infected mouse #2, 30 min pi): 8.5 % ID/cm^3
- SPECT activity in neck ganglia ([2]; infected mouse #2, 3.5 h pi): 9.5 % ID/cm^3
- SPECT activity in neck ganglia ([2]; infected mouse #3, 30 min pi): 4 % ID/cm^3
- SPECT activity in neck ganglia ([2]; infected mouse #3, 3.5 h pi): 5 % ID/cm^3
- route of elimination ([2]; oral gavage of the radiotracer, mice): primarily through the urinary tract

Compound: CCc1nc(N)nc(N)c1-c1ccc(Cl)cc1 [pyrimethamine]
- IC50 (Toxoplasma): 400 nM

Compound: FR235222
- efficiency on parasite proliferation and ex vivo cyst formation (Toxoplasma gondii): efficient in vitro
